Assay results as given in patent US20160108005A1, “TREATMENT OR PREVENTION OF DEPRESSION USING MENTHOL AND/OR ICILIN” (NESTEC S.A., priority 2013, published 2016).

Tests used:
Assay type in all cases: cell-based
[1] = system: neocortex; test: action potential threshold in mouse brain slice recordings
Source text: (§1) A mouse brain slice was used to study the effects of Menthol, Linalool (another transient receptor potential M8 (TRPM8) channel agonist) and Icilin. The amygdaloid complex is located within the medial temporal lobe in neocortex and amygdala. The lateral and basolateral nuclei of the amygdaloid complex receive sensory information from cortical and thalamic structures, process the information, and then transmit the information, either directly or through the basal nucleus, to the central nucleus. For experimental analysis of neuronal activity, synaptic responses from the basolateral complex can be evoked electrically using electrodes, and the action potentials can be measured.

[2] = system: Lateral Amygdala glutamatergic neuron (in a mouse brain slice); test: whole cell, current clamp recordings, 2.5 s square pulse at high depolarization (approximately −30 mV); details: for inactivation of the sodium fast channels / neuronal firing: square pulse of 2.5 s at high depolarization of membrane potential (approximately −30 mV), relative to control, FIG. 2
Source text: as §1, with “measured. […] A square pulse of 2.5 s was applied at high depolarization of membrane potential (approximately −30 mV).” for “measured.”

[3] = system: Lateral Amygdala glutamatergic neuron (in a mouse brain slice); test: whole cell, current clamp recordings with increasing concentration of gabazine (spontaneous action potential bursts); details: Menthol 250 μM applied extracellularly 10 minutes previous to and during increasing concentrations of gabazine; FIG. 5 compared to FIG. 3
Source text: as §1, with “measured. […] As shown, neurons spontaneously present action potential bursts due to massive presynaptic discharges.” for “measured.”

SMILES	amount of current required to trigger an action potential [1]	threshold to trigger an action potential [1]	action potentials at higher stimulation levels [2]	inactivation of the sodium fast channels / neuronal firing [2]	spontaneous action potential bursts [3]
O=C1NC(c2cccc([N+](=O)[O-])c2)=CCN1c1ccccc1O [Icilin]	increase the amount of current required to trigger an action potential	increase the threshold to trigger an action potential	abort action potentials at higher stimulation levels	inactivation of the sodium fast channels happens sooner relative to control	–
CC1CCC(C(C)C)C(O)C1 (stereo not shown) [Menthol]	increase the amount of current required to trigger an action potential	increase the threshold to trigger an action potential	abort action potentials at higher stimulation levels	inactivation of the sodium fast channels happens sooner relative to control	complete absence or a strongly decreased presence of spontaneous bursts
C=CC(C)(O)CCC=C(C)C (stereo not shown) [Linalool]	–	–	–	inactivation of the sodium fast channels happens sooner relative to control	–
